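These data come from cells grown in 96-well plates and exposed to compound for 48 hours at five concentrations. Abbreviation: GI50, concentration required for 50% inhibition of growth.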 The source made the active and inactive calls. Cut-off read from the data, not from the text of the source: active = GI50 up to about 1.1 µM and inactive = higher.
Experiments:
Experiment in all cases: growth of human tumour cells (NCI), 48 h
A549 = system: A549
COLO 205 = system: COLO 205
EKVX = system: EKVX
HCC 2998 = system: HCC 2998
HT-29 = system: HT-29
IGROV-1 = system: IGROV-1
KM12 = system: KM12
NCI-H226 = system: NCI-H226
NCI-H522 = system: NCI-H522
OVCAR-5 = system: OVCAR-5
OVCAR-8 = system: OVCAR-8
RPMI-8226 = system: RPMI-8226
SF-539 = system: SF-539
SK-MEL-28 = system: SK-MEL-28
SK-MEL-5 = system: SK-MEL-5
SK-OV-3 = system: SK-OV-3
T47D = system: T47D
U-251 = system: U-251
UACC-257 = system: UACC-257
UACC-62 = system: UACC-62

Measured: GI50

CCCCCC1=CC(=O)C1(Cl)Cl
inactive: A549 23.5 µM | COLO 205 12.2 µM | EKVX 20.1 µM | HCC 2998 14.2 µM | HT-29 14.6 µM | IGROV-1 18.4 µM | KM12 13.2 µM | NCI-H226 15.3 µM | NCI-H522 5.24 µM | OVCAR-5 15.4 µM | OVCAR-8 10.6 µM | RPMI-8226 2.77 µM | SF-539 12.4 µM | SK-MEL-28 14.5 µM | SK-MEL-5 9.48 µM | SK-OV-3 33.9 µM | T47D 8.24 µM | U-251 9.23 µM | UACC-257 12.2 µM | UACC-62 10.9 µM

Cc1cc2c(cc1C)C(=O)C1(C2)Cc2cc3c(cc2C1=O)CCC3 (stereo not given)
inactive: A549 > 100 µM | COLO 205 > 100 µM | EKVX > 100 µM | HCC 2998 > 100 µM | HT-29 > 100 µM | IGROV-1 > 100 µM | KM12 > 100 µM | NCI-H226 > 100 µM | NCI-H522 > 100 µM | OVCAR-5 > 100 µM | OVCAR-8 > 100 µM | RPMI-8226 > 100 µM | SF-539 4.95 µM | SK-MEL-28 > 100 µM | SK-MEL-5 > 100 µM | SK-OV-3 > 100 µM | T47D > 100 µM | U-251 > 100 µM | UACC-257 > 100 µM | UACC-62 > 100 µM

COc1cccc(/C=N/[N+](C)(C)C)c1O
inactive: A549 > 10 µM | COLO 205 > 10 µM | EKVX > 10 µM | HCC 2998 > 10 µM | HT-29 > 10 µM | IGROV-1 > 10 µM | KM12 > 10 µM | NCI-H226 > 10 µM | NCI-H522 > 10 µM | OVCAR-5 > 10 µM | OVCAR-8 > 10 µM | RPMI-8226 > 10 µM | SF-539 > 10 µM | SK-MEL-28 > 10 µM | SK-MEL-5 > 10 µM | SK-OV-3 > 10 µM | T47D > 10 µM | U-251 > 10 µM | UACC-257 > 10 µM | UACC-62 > 10 µM

COc1cc([C@H]2c3cc4c(cc3O[C@@]3(O)COC(=O)[C@@H]23)OCO4)cc(OC)c1OC
inactive: A549 > 100 µM | COLO 205 > 100 µM | EKVX > 100 µM | HCC 2998 > 100 µM | HT-29 > 100 µM | IGROV-1 > 100 µM | KM12 > 100 µM | NCI-H226 > 100 µM | NCI-H522 > 100 µM | OVCAR-5 > 100 µM | OVCAR-8 > 100 µM | RPMI-8226 > 100 µM | SF-539 > 100 µM | SK-MEL-28 > 100 µM | SK-MEL-5 > 100 µM | SK-OV-3 > 100 µM | T47D > 100 µM | U-251 > 100 µM | UACC-257 > 100 µM | UACC-62 > 100 µM

O=c1c2cc(Cl)ccc2[nH]c2cc(O)cc(O)c12
inactive: A549 > 10 µM | COLO 205 > 10 µM | EKVX 4.12 µM | HCC 2998 > 10 µM | HT-29 > 10 µM | IGROV-1 > 10 µM | KM12 > 10 µM | NCI-H226 1.61 µM | NCI-H522 > 10 µM | OVCAR-5 > 10 µM | OVCAR-8 > 10 µM | RPMI-8226 > 10 µM | SF-539 > 10 µM | SK-MEL-28 > 10 µM | SK-MEL-5 > 10 µM | SK-OV-3 > 10 µM | T47D > 10 µM | U-251 > 10 µM | UACC-257 5.41 µM | UACC-62 > 10 µM

COc1ccc(C(C)c2cc3c(cc2O)OCO3)cc1 (stereo not given)
inactive: A549 14.7 µM | COLO 205 14.3 µM | EKVX 20.3 µM | HCC 2998 7.01 µM | HT-29 12.6 µM | IGROV-1 15.8 µM | KM12 12.9 µM | NCI-H226 19.7 µM | NCI-H522 11.4 µM | OVCAR-5 20.6 µM | OVCAR-8 16.7 µM | RPMI-8226 16.8 µM | SF-539 16.9 µM | SK-MEL-28 16.8 µM | SK-MEL-5 14.8 µM | SK-OV-3 19.7 µM | T47D 24.9 µM | U-251 15.1 µM | UACC-257 15.6 µM | UACC-62 12.1 µM

CC(=O)Oc1ccc(/C=C/C(=O)OCCOC(=O)/C=C/c2ccc(OC(C)=O)c(OC(C)=O)c2)cc1OC(C)=O
inactive: A549 16.1 µM | COLO 205 14.1 µM | EKVX 14.8 µM | HCC 2998 14.5 µM | HT-29 18.6 µM | IGROV-1 2.95 µM | KM12 10.1 µM | NCI-H226 14.9 µM | NCI-H522 2.93 µM | OVCAR-5 14.6 µM | OVCAR-8 4.8 µM | RPMI-8226 4.12 µM | SF-539 2.72 µM | SK-MEL-28 14.4 µM | SK-MEL-5 7.36 µM | SK-OV-3 13.9 µM | T47D 13 µM | U-251 4.99 µM | UACC-257 10.5 µM | UACC-62 5 µM

Source: ChEMBL document CHEMBL1201862, “PubChem BioAssay data set” (2004)
